Reference: patent US20260146102A1, “METHODS FOR MODULATING REGULATORY T CELLS” (Universite de Lausanne, priority 2018, published 2026)

Experiments:
YUMM1.7 melanoma = assay: YUMM1.7 melanoma-engrafted mice treated with PPARβ selective agonist; assay type: in vivo
Experimental: Tumor engraftment and treatment of tumor-bearing mice. For tumor induction, 3-week-old Braf/Pten mice were treated with 4-hydroxytamoxifen on the skin surface as described before to induce tumor formation (Ho, P. C. et al. Cancer Res 74, 3205-3217 (2014)). For tumor engraftment, 5×10^4 cells YUMM1.7, B 16-OVA, or one million MC38 tumor cells were injected subcutaneously in 50 μl PBS. Tumors were measured every 2-3 days post tumor engraftment or indicated treatments and calculated. Tumor volume was calculated by volume=(length×width^2 )/2 for engrafted tumor or volume=(length×width×height) for inducible tumor. For in vivo treatment, Yumm 1.7-bearing mice were administrated every 3 days with either DMSO or PPARβ agonist (GW 501516) (1 mg per kg of body weight, Cayman Chemical) by intraperitoneal injection. For antibody-based treatment, tumor-bearing mice were treated with anti-PD-1 antibody (200 μg per injection, BioXcell, clone 29F.1A12) and anti-CD36 antibody (200 μg per injection, clone CRF D-2712 (Driscoll, W. S., et al. Circulation research 113, 52-61 (2013)) according to indicated combination by intraperitoneal injection. For antibody treatment in the Braf/Pten mouse model, four weeks after tumor induction, tumor-bearing Braf/Pten mice were treated with anti-CD36 antibody and/or anti-PD-1 antibody as indicated above for a period of 10 days. All experiments were conducted according to Swiss federal regulations.
Tumor digestion and cell isolation. Tumors were minced into small pieces in RPMI containing 2% FBS, 1% penicillin-streptomycin (p/s), DNase I (1 μg/ml, Sigma-Aldrich), and collagenase (0.5 mg/ml, Sigma-Aldrich) and kept for digestion for 40 min at 37° C., followed by the filtration with a 70 μm cell strainer. Filtered cells were incubated with ACK lysis buffer (Invitrogen) to lyse red blood cells and then washed with fluorescent activated cell sorter (FACS) buffer (phosphate-buffered saline with 2% fetal bovine serum and 2 mM EDTA). Tumor-infiltrating leukocytes were further enriched by percoll density gradient centrifugation (800×g, 30 min) at room temperature as described before (Cheng, W. C. et al. Nat Immunol 20, 206-217 (2019)).
Flow cytometry, cell sorting, and antibodies. Single cell suspensions were incubated with Fc receptor-blocking anti-CD16/32 (93) and anti-CD351 (TX61) antibodies (Biolegend) on ice for 10 min before staining. Cell suspensions were first stained with LIVE/DEAD® Fixable Violet Dead Cell Stain Kit (ThermoFisher) at 37° C. for 10 min. After washing, surface proteins were stained for 30 min at 4° C. […] Samples were analyzed on LSRII flow cytometers (BD Biosciences) and data were analyzed with FlowJo. […]

CD36-deficient Tregs [1] = assay: NAD/NADH measurement in CD36-deficient iTregs cultured in cancer cell-conditioned medium; assay type: cell-based, mice; conditions: 48 h, vs DMSO
Experimental: Cancer cell-conditioned medium and iTreg culture. iTregs were generated by activating naïve CD4^+ T cells with Dynabeads conjugated with anti-CD3 and anti-CD28 mAbs (ThermoFisher) in RMPI media supplemented with 10% FBS, 10 ng/ml TGFβ and 50 U/ml IL-2 for three days. Then activated CD 4^+ T cells were maintained in RPMI media plus 10% FBS and 50 U/ml IL-2 for another 2 days. Differentiated iTregs were firstly sorted by using FACS cell sorter and then incubated in indicated culture condition for 48 h. The survival and NAD/NADH levels of iTregs were then determined by live/dead staining and ELISA kits, respectively. For NAD/NADH measurement in CD36-KO iTregs treated with PPARβ agonist, sorted iTregs were cultured in cancer cell-conditioned medium in the presence of DMSO or GW50156 for 48 h. […]
NAD and NADH measurement. The ratio of nicotinamide adenine dinucleotide (NAD) and nicotinamide adenine dinucleotide […] (NADH) was measured by using the commercial NAD/NADH Quantification Kit (Sigma-Aldrich MAK037). […]
decomposition. The samples were then transferred to a 96 wells plate for measuring the absorbance of 450 nm. […] The ratio of NAD/NADH in a sample could be determined by the following equation: ratio=(NADtotal−NADH)/NADH.

CD36-deficient Tregs [2] = assay: Viability of iTregs in cancer cell-conditioned medium with or without NR; assay type: cell-based, mice; conditions: NR 400 μM, 72 hrs (FIG. 3i)
Experimental: Cancer cell-conditioned medium and iTreg culture. iTregs were generated by activating naïve CD4^+ T cells with Dynabeads conjugated with anti-CD3 and anti-CD28 mAbs (ThermoFisher) in RMPI media supplemented with 10% FBS, 10 ng/ml TGFβ and 50 U/ml IL-2 for three days. Then activated CD 4^+ T cells were maintained in RPMI media plus 10% FBS and 50 U/ml IL-2 for another 2 days. […] The survival and NAD/NADH levels of iTregs were then determined by live/dead staining and ELISA kits, respectively. For NAD/NADH measurement in CD36-KO iTregs treated with PPARβ agonist, sorted iTregs were cultured in cancer cell-conditioned medium in the presence of DMSO or GW50156 for 48 h. Control RPMI for iTreg in vitro treatment was prepared with RPMI 1640 medium (Biological Industries) supplementing with 2 mM Glucose, 10 mM Glutamine, 10% Dialyzed FBS, 0.1% β-ME, and indicated levels of lactic acids. YUMM1.7 cancer cell-conditioned medium was collected by incubating YUMM1.7 cells (70-80% density) with control RPMI described above for 18 h. Then, culture medium was collected and centrifuged at 2000 rpm for 15 min to remove debris and cancer cells as cancer cell-conditioned medium. YUMM1.7 cancer cell-conditioned medium collected as described above was treated with Cleanascite™ reagent (Biotech Support Group) prior to Treg culture at a volume ratio of 1:5 according to the manufacturer's instruction.

Row | Structure (SMILES) | cleaved caspase-3 in intratumoral Tregs (YUMM1.7 melanoma; Treg^CD36−/− mice (FIG. 4i)) | mitochondrial membrane potential of intratumoral Tregs (MitoTracker Deep Red staining) (YUMM1.7 melanoma; Treg^CD36−/− mice (FIG. 4h)) | intratumoral Treg abundance (FoxP3+ Tregs among CD4+ tumor-infiltrating T lymphocytes) (YUMM1.7 melanoma; Treg^CD36−/− mice, 1 mg per kg i.p. every 3 days, two weeks (FIG. 4g)) | tumor growth (YUMM1.7 melanoma; Treg^CD36−/− mice, 1 mg per kg i.p. every 3 days, two weeks, vs control vehicle (FIG. 4f)) | NAD/NADH ratio (CD36-deficient Tregs [1]) | viability of CD36-deficient Tregs exposed to cancer cell-conditioned medium (CD36-deficient Tregs [2])
1 | Cc1cc(SCc2sc(-c3ccc(C(F)(F)F)cc3)nc2C)ccc1OCC(=O)O [GW501516] | lower levels | increased mitochondrial membrane potentials | restored | restored tumor growth | increased NAD/NADH ratios | 
2 | NC(=O)c1ccc[n+]([C@@H]2O[C@H](CO)[C@@H](O)[C@H]2O)c1 [nicotinamide riboside] |  |  |  |  |  | partially rescued the viability
